From patent US10981917B2, “Heterocyclic compound, its preparation method, and pharmaceutical composition comprising the same” (Daewoong Pharmaceutical Co., Ltd., priority 2017, dated 2021)

Target: PRS (prolyl-tRNA synthetase) protein, PRS portion of EPRS (Homo sapiens (Human), UniProt P07814)
Experiment: PRS enzyme activity inhibition experiment ([3H]proline, liquid scintillation)
Type: biochemical
Details: purified PRS protein, 37° C. for 5 to 10 minutes
Procedure: In order to confirm the biological activities of the compounds prepared in Examples, % inhibition or IC50 values of PRS enzyme ([…]) activities were calculated.
Specifically, the portion corresponding to PRS in cDNA of EPRS was subcloned, and the obtained high-purity PRS protein was purified and used in the experiment. The compounds (1 μM) prepared in Examples were added into the reaction buffer (20 mM KPO4 (pH 7.4), 6 mM MgAc, 5 mM ATP, […] tRNA, 0.5 mM DTT, […][^3H]proline (1 mCi/mL)) and allowed to react at 37° C. for 5 to 10 minutes. The reaction was terminated with 3M paper that was in advance dried by addition of 5% TCA. The radioactivity was measured using a liquid scintillation counter.
% Inhibition and IC50 values of the respective compounds were calculated and analyzed using Microsoft Excel or Sigma Plot 8.0. In Tables 1 to 3, the results are divided into A, B and C according to the range of IC50. The case where the derived IC50 is 100 nM or less is represented by “A”, the case where the IC50 is 100 to 500 nM is represented by “B”, and the case where the IC50 is 500 nM or higher is represented by “C”.

Sequence of PRS (prolyl-tRNA synthetase) protein, PRS portion of EPRS (P07814 1007-1512): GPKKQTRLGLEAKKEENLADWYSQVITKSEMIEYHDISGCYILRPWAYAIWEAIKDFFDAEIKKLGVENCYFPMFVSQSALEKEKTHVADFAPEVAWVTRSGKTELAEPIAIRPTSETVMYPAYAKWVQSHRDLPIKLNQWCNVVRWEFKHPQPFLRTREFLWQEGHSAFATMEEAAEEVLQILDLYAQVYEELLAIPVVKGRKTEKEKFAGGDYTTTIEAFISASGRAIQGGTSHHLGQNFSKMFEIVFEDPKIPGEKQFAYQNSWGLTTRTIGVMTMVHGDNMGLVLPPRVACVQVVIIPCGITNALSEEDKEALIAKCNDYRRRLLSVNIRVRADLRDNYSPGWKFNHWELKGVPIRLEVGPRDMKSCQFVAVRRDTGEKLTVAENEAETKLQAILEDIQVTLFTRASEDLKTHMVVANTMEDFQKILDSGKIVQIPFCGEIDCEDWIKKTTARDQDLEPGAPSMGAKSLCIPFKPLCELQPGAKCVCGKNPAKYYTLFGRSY

Row | SMILES | IC50
1 | O[C@H]1CCCN[C@@H]1CCCn1cnc2ccc(F)c(F)c21 [Example 50, (2R,3S)-2-(3-(6,7-difluoro-1H-benzo[d]imidazol-1-yl)propyl)piperidin-3-ol] | 100 to 500 nM
2 | O[C@H]1CCCN[C@@H]1CCCn1nc(C(F)(F)F)c2cc(Cl)ccc21 [Example 156, (2R,3S)-2-(3-(5-chloro-3-(trifluoromethyl)-1H-indazol-1-yl)propyl)piperidin-3-ol] | ≥ 500 nM
3 | O[C@H]1CCCN[C@@H]1CCCn1cnc2cc(Cl)cc(-c3cccc(F)c3)c21 [Example 83, (2R,3S)-2-(3-(5-chloro-7-(3-fluorophenyl)-1H-benzo[d]imidazol-1-yl)propyl)piperidin-3-ol] | ≤ 100 nM
4 | O[C@H]1CCCN[C@@H]1/C=C(\F)Cn1cnc2cc(Cl)c(Cl)cc21 [Example 219, (2R,3S)-2-((Z)-3-(5,6-dichloro-1H-benzo[d]imidazol-1-yl)-2-fluoroprop-1-en-1-yl)piperidin-3-ol] | ≥ 500 nM
5 | O[C@H]1CCCN[C@@H]1CCCn1cnc2cc(Cl)cc(-c3cnn(-c4nccs4)c3)c21 [Example 101, (2R,3S)-2-(3-(5-chloro-7-(1-(thiazol-2-yl)-1H-pyrazol-4-yl)-1H-benzo[d]imidazol-1-yl)propyl)piperidin-3-ol] | ≤ 100 nM
6 | OCc1nc2cc(Cl)c(Cl)cc2n1CCC[C@H]1NCCC[C@@H]1O [Example 147, (2R,3S)-2-(3-(5,6-dichloro-2-(hydroxymethyl)-1H-benzo[d]imidazol-1-yl)propyl)piperidin-3-ol] | ≥ 500 nM
7 | O[C@H]1CCCN[C@@H]1CCCn1cnc2c(Br)cccc21 [Example 2, (2R,3S)-2-(3-(4-bromo-1H-benzo[d]imidazol-1-yl)propyl)piperidin-3-ol] | 100 to 500 nM
8 | O=C(O)c1cn(C/C=C/[C@H]2NCCC[C@@H]2O)c2cc(Cl)ccc12 [Example 206, 6-chloro-1-((E)-3-((2R,3S)-3-hydroxypiperidin-2-yl)allyl)-1H-indole-3-carboxylic acid] | ≥ 500 nM
9 | O[C@H]1CCCN[C@@H]1CCCn1cnc2cc(Br)c(Br)cc21 [Example 54, (2R,3S)-2-(3-(5,6-dibromo-1H-benzo[d]imidazol-1-yl)propyl)piperidin-3-ol] | ≥ 500 nM
10 | Cc1c(Br)ccc2c1ncn2CC#C[C@H]1NCCC[C@@H]1O [Example 226, (2R,3S)-2-(3-(5-bromo-4-methyl-1H-benzo[d]imidazol-1-yl)prop-1-yn-1-yl)piperidin-3-ol] | ≥ 500 nM
11 | O[C@H]1CCCN[C@@H]1CCCn1cnc2cc(-c3cn[nH]c3)ccc21 [Example 29, (2R,3S)-2-(3-(5-(1H-pyrazol-4-yl)-1H-benzo[d]imidazol-1-yl)propyl)piperidin-3-ol] | ≥ 500 nM
12 | Cc1c(Br)cnc2c1ncn2CCC[C@H]1NCCC[C@@H]1O [Example 132, (2R,3S)-2-(3-(6-bromo-7-methyl-3H-imidazo[4,5-b]pyridin-3-yl)propyl)piperidin-3-ol] | 100 to 500 nM
13 | O[C@H]1CCCN[C@@H]1CCCn1cnc2cc(Cl)cc(-c3cnn(CCF)c3)c21 [Example 112, (2R,3S)-2-(3-(5-chloro-7-(1-(2-fluoroethyl)-1H-pyrazol-4-yl)-1H-benzo[d]imidazol-1-yl)propyl)piperidin-3-ol] | 100 to 500 nM
14 | O[C@H]1CCCN[C@@H]1CCCn1cnc2cc(C(F)(F)F)cc(Cl)c21 [Example 78, (2R,3S)-2-(3-(7-chloro-5-(trifluoromethyl)-1H-benzo[d]imidazol-1-yl)propyl)piperidin-3-ol] | 100 to 500 nM
15 | Cc1cc(Br)cc2c1ncn2CCC[C@H]1NCCC[C@@H]1O [Example 63, (2R,3S)-2-(3-(6-bromo-4-methyl-1H-benzo[d]imidazol-1-yl)propyl)piperidin-3-ol] | ≤ 100 nM
16 | O[C@H]1CCCN[C@@H]1CCCn1cnc2ccc(C(F)(F)F)c(Cl)c21 [Example 67, (2R,3S)-2-(3-(7-chloro-6-(trifluoromethyl)-1H-benzo[d]imidazol-1-yl)propyl)piperidin-3-ol] | ≤ 100 nM
17 | O[C@H]1CCCN[C@@H]1CCCn1nc(-c2cnn(C(F)F)c2)c2cc(Cl)ccc21 [Example 157, (2R,3S)-2-(3-(5-chloro-3-(1-(difluoromethyl)-1H-pyrazol-4-yl)-1H-indazol-1-yl)propyl)piperidin-3-ol] | ≥ 500 nM
18 | O[C@H]1CCCN[C@@H]1/C=C/Cn1cnc2ccc(-c3cccc(F)c3)cc21 [Example 191, (2R,3S)-2-((E)-3-(6-(3-fluorophenyl)-1H-benzo[d]imidazol-1-yl)prop-1-en-1-yl)piperidin-3-ol] | 100 to 500 nM
19 | O[C@H]1CCCN[C@@H]1CCCn1cnc2cc(Cl)cc(-c3ccon3)c21 [Example 90, (2R,3S)-2-(3-(5-chloro-7-(Isoxazol-3-yl)-1H-benzo[d]imidazol-1-yl)propyl)piperidin-3-ol] | 100 to 500 nM

Row | SMILES | IC50
20 | CC(C)Cn1cc(-c2cc(Cl)cc3ncn(CCC[C@H]4NCCC[C@@H]4O)c23)cn1 [Example 115, (2R,3S)-2-(3-(5-chloro-7-(1-isobutyl-1H-pyrazol-4-yl)-1H-benzo[d]imidazol-1-yl)propyl)piperidin-3-ol] | 100 to 500 nM
21 | O[C@H]1CCCN[C@@H]1CCCn1cnc2cc(Cl)c(Cl)cc21 [Example 53, (2R,3S)-2-(3-(5,6-dichloro-1H-benzo[d]imidazol-1-yl)propyl)piperidin-3-ol] | 100 to 500 nM
22 | O[C@H]1CCCN[C@@H]1CCCn1cnc2cc(Cl)cc(-c3cnn(CC4OCCO4)c3)c21 [Example 95, (2R,3S)-2-(3-(7-(1-((1,3-dioxolan-2-yl)methyl)-1H-pyrazol-4-yl)-5-chloro-1H-benzo[d]imidazol-1-yl)propyl)piperidin-3-ol] | 100 to 500 nM
23 | O[C@H]1CCCN[C@@H]1/C=C/Cn1cnc2ccc(-c3cccc(Cl)c3)cc21 [Example 190, (2R,3S)-2-((E)-3-(6-(3-chlorophenyl)-1H-benzo[d]imidazol-1-yl)prop-1-en-1-yl)piperidin-3-ol] | 100 to 500 nM
24 | CNC(=O)c1cn(C/C=C/[C@H]2NCCC[C@@H]2O)c2ccc(Br)cc12 [Example 215, 5-bromo-1-((E)-3-((2R,3S)-3-hydroxypiperidin-2-yl)allyl)-N-methyl-1H-indole-3-carboxamide] | ≥ 500 nM
25 | O[C@H]1CCCN[C@@H]1CCCn1cnc2ccc(C(F)(F)F)cc21 [Example 15, (2R,3S)-2-(3-(6-(trifluoromethyl)-1H-benzo[d]imidazol-1-yl)propyl)piperidin-3-ol] | 100 to 500 nM
26 | Cc1cc(Cl)cc2c1ncn2C/C=C/[C@H]1NCCC[C@@H]1O [Example 180, (2R,3S)-2-((E)-3-(6-chloro-4-methyl-1H-benzo[d]imidazol-1-yl)prop-1-en-1-yl)piperidin-3-ol] | 100 to 500 nM
27 | O[C@H]1CCCN[C@@H]1/C=C/Cn1cnc2cc(F)c(F)cc21 [Example 171, (2R,3S)-2-((E)-3-(5,6-difluoro-1H-benzo[d]imidazol-1-yl)prop-1-en-1-yl)piperidin-3-ol] | ≥ 500 nM
28 | O[C@@H]1CCCN[C@H]1CCCn1cnc2c(Cl)c(Cl)ccc21 [Example 42, (2S,3R)-2-(3-(4,5-dichloro-1H-benzo[d]imidazol-1-yl)propyl)piperidin-3-ol] | ≥ 500 nM
29 | Cn1cc(-c2cc(Cl)cc3ncn(CCC[C@H]4NCCC[C@@H]4O)c23)ccc1=O [Example 88, 5-(5-chloro-1-(3-((2R,3S)-3-hydroxypiperidin-2-yl)propyl)-1H-benzo[d]imidazol-7-yl)-1-methylpyridin-2(1H)-one] | ≥ 500 nM
30 | O[C@H]1CCCN[C@@H]1CCCn1cnc2c(Cl)c(C(F)(F)F)ccc21 [Example 66, (2R,3S)-2-(3-(4-chloro-5-(trifluoromethyl)-1H-benzo[d]imidazol-1-yl)propyl)piperidin-3-ol] | ≥ 500 nM
31 | O[C@H]1CCCN[C@@H]1CCCn1cnc2c(F)cc(F)cc21 [Example 57, (2R,3S)-2-(3-(4,6-difluoro-1H-benzo[d]imidazol-1-yl)propyl)piperidin-3-ol] | ≥ 500 nM
32 | O[C@H]1CCCN[C@@H]1CCCn1cnc2cc(Cl)ncc21 [Example 123, (2R,3S)-2-(3-(6-chloro-3H-imidazo[4,5-c]pyridin-3-yl)propyl)piperidin-3-ol] | ≥ 500 nM
33 | COC(=O)c1cn(CCC[C@H]2NCCC[C@@H]2O)c2ccc(Br)cc12 [Example 150, methyl 5-bromo-1-(3-((2R,3S)-3-hydroxypiperidin-2-yl)propyl)-1H-indole-3-carboxylate] | ≥ 500 nM
34 | O[C@H]1CCCN[C@@H]1/C=C/Cn1ccc2c(Cl)ncnc21 [Example 199, (2R,3S)-2-((E)-3-(4-chloro-7H-pyrrolo[2,3-d]pyrimidin-7-yl)prop-1-en-1-yl)piperidin-3-ol] | ≥ 500 nM
35 | O=C(O)c1cn(C/C=C/[C@H]2NCCC[C@@H]2O)c2ccc(Br)cc12 [Example 204, 5-bromo-1-((E)-3-((2R,3S)-3-hydroxypiperidin-2-yl)allyl)-1H-indole-3-carboxylic acid] | ≥ 500 nM
36 | COC(=O)c1cn(C/C=C/[C@H]2NCCC[C@@H]2O)c2cc(Cl)ccc12 [Example 211, methyl 6-chloro-1-((E)-3-((2R,3S)-3-hydroxypiperidin-2-yl)allyl)-1H-indole-3-carboxylate] | ≥ 500 nM
37 | O[C@H]1CCCN[C@@H]1CCCn1cnc2c(N3CCCC3)cccc21 [Example 18, (2R,3S)-2-(3-(4-(pyrrolidin-1-yl)-1H-benzo[d]imidazol-1-yl)propyl)piperidin-3-ol] | ≥ 500 nM
